Assay results reported in patent publication EP0663826B1, “AMINO ACIDS CONTAINING PARENTERAL FORMULATIONS FOR THE TREATMENT OF HYPOTENSION AND RELATED PATHOLOGIES” (BOARD OF REGENTS THE UNIVERSITY OF TEXAS SYSTEM, priority 1991, dated 1993).

Tested on: IL-1-Induced Hypotension in Dogs
Test: IL-1-induced hypotension in dogs
Type: in vivo
Conditions: for MAP after arginine administration: then L-arginine 400 mg/kg
Method: • FIGURE 1 - Reversal of hypotension associated with the administration of IL-1 to dogs. The tracing shown is a representative experiment that was repeated four times. Each dog was anesthetized and […] as described herein, and baseline cardiovascular data were monitored for 30 minutes. IL-1 was dissolved in phosphate-buffered saline (pH 7.4) containing 1 mg/ml of dog albumin, and the resulting solution was infused intravenously for three minutes to deliver a dose of 50 µg/kg. MAP was continuously monitored; when a stable nadir was reached and maintained for more than 10 minutes or when MAP dropped below 50 mm Hg, NAA (20 mg/kg in 10 ml phosphate-buffered saline) was administered by intravenous infusion for 30 seconds. Sixty minutes after MAP was restored to baseline or higher values, L-arginine (400 mg/kg in 20 ml phosphate-buffered saline) was administered by slow intravenous infusion for 5 minutes. Anesthetized dogs given IL-1 (50 µg/kg) developed a progressive, moderately severe hypotension, with MAP decreasing from a baseline of 111 +/- 7 mm Hg to 80 +/- 2 mm Hg within about 3 hours. Hypotension was rapidly reversed by the intravenous administration of a single bolus dose of NAA (20 mg/kg, 88 umol/kg), with MAP increasing by from 46 +/- 9 mm Hg (58%_ to 125 +/- 8 mm Hg. • FIGURES 2A, 2B, 2C - Inhibition of IL-1-activated NO· production by N^ω-substituted arginine analogues. Figure 2A: Comparison of nitrite synthesis inhibition in smooth muscle cells by the L-isomers of NAA, NMA, and NNA and by the D-isomer of NMA. Figure 2B: Concentration dependence of nitrite synthesis inhibition in smooth muscle cells by NAA as a function of different L-arginine concentration in the culture medium. Confluent monolayers of smooth muscle cells in 96-well microtiter plates were treated with a combination of 100 ng/ml IL-1 and 50 ng/ml IFN-γ for 24 hours. Cells were then washed with Hanks' balanced salt solution, and fresh medium containing the indicated concentration of L-arginine was added. Points indicate means ± SD of nitrite production, expressed as percent of control, during a 16-hour exposure to arginine analogues (n = 3-4). Figure 2C: Effect of NAA on smooth muscle cell NO· synthase. Cytosol from cytokine-induced smooth muscle cells (∼2 µg protein) was incubated with 1 mM L-arginine, 0.5 mM NADPH, 1 mM dithiothreitol, 10 µM flavin-adenine dinucleotide, 10 µM tetrahydrobiopterin, and 0.1 U/ml dihydropteridine reductase in a total volume of 100 µL. The time course of Fe^2+-myoglobin oxidation was measured in the absence (control) or presence of 300 µM NAA (+NAA). […] FIGURE A: Time course of nitrite synthesis elicited by 40 ng/mL IL-1 alone (open circles) and by IL-1 in the presence of 50 ng/ml IFN-γ (open triangles). […] Inclusion of IL-1 receptor antagonist (40 µg/mL; filled symbols) in the culture medium inhibited nitrite production stimulated by both IL-1 and IL-1 plus IFN-γ. FIGURE B: IL-1 concentration dependence for smooth muscle cell nitrite production. Data points indicate nitrite produced during a 29-hour incubation with the indicated concentration of IL-1 alone (open circles) or in the presence of IL-1 plus 50 ng/mL IFN-γ (open triangles). All values are means ± SD for nitrite production by confluent smooth muscle cell monolayers grown in 96-well microtiter plates (60-80 X 10^3 cells per well; n = 3-4).
Experiments were conducted on healthy mongrel dogs that were free of microfilaria and weighed 25-28 kg each. […]

Structure (SMILES): N=C(N)NCCC[C@H](N)C(=O)O [L-arginine]
- average decrease in systemic vascular resistance following arginine (IL-1-treated animals given NAA, then arginine): 61%
- MAP after arginine administration (IL-1-treated dogs given NAA): 66 ± 27 mm Hg
- MAP after arginine administration (control dogs given NAA): essentially at baseline levels
